Data as given in the NIST ThermoML archive (doi:10.1021/je400415r).

Assay: mn = molality of the nth substance listed, in mol/kg
Settings: 101 kPa, Liquid; for speed of sound: Pulse-echo method; for mass density: Vibrating tube method

NCC(=O)O [2-aminoacetic acid] + O
Settings	mass density, 288.15 K [kg/m3]	mass density, 298.15 K [kg/m3]	mass density, 308.15 K [kg/m3]	mass density, 318.15 K [kg/m3]	speed of sound, 288.15 K [m/s]	speed of sound, 298.15 K [m/s]	speed of sound, 308.15 K [m/s]	speed of sound, 318.15 K [m/s]
m1 = 0.04998	1000.77	998.679	995.632	991.792	1469.2	1499.4	1522.2	1538.6
m1 = 0.1399	1003.74	1001.58	998.484	994.608	1474.3	1504.2	1526.8	1543
m1 = 0.2276	1006.6	1004.38	1001.24	997.323	1479.2	1508.8	1531.1	1547.1
m1 = 0.4056	1012.27	1009.94	1006.71	1002.72	1488.9	1517.9	1539.7	1555.4
m1 = 0.5835	1017.82	1015.36	1012.04	1007.99	1498.4	1526.8	1548.2	1563.5
m1 = 0.7602	1023.19	1020.62	1017.22	1013.1	1507.6	1535.4	1556.3	1571.3
m1 = 0.9386	1028.48	1025.81	1022.32	1018.13	1516.7	1543.9	1564.4	1579
m1 = 1.117	1033.62	1030.85	1027.28	1023.04	1525.5	1552.2	1572.2	1586.4
m1 = 1.296	1038.69	1035.81	1032.17	1027.84	1534.1	1560.3	1579.8	1593.7

CCC(N)C(=O)O (stereo not drawn) [(.+-.)-α-aminobutyric acid] + O
Settings	mass density, 288.15 K [kg/m3]	mass density, 298.15 K [kg/m3]	mass density, 308.15 K [kg/m3]	mass density, 318.15 K [kg/m3]	speed of sound, 288.15 K [m/s]	speed of sound, 298.15 K [m/s]	speed of sound, 308.15 K [m/s]	speed of sound, 318.15 K [m/s]
m1 = 0.04996	1000.54	998.441	995.405	991.565	1470.8	1500.8	1523.5	1539.8
m1 = 0.1498	1003.36	1001.19	998.105	994.226	1479.5	1508.9	1530.9	1546.7
m1 = 0.2141	1005.15	1002.92	999.815	995.911	1485.2	1513.8	1535.7	1551.1
m1 = 0.4366	1011.15	1008.79	1005.56	1001.57	1504.2	1531.5	1551.8	1566
m1 = 0.6599	1016.91	1014.4	1011.06	1006.99	1522.7	1548.4	1567.4	1580.5
m1 = 0.8834	1022.42	1019.77	1016.34	1012.18	1540.7	1564.9	1582.6	1594.5
m1 = 1.106	1027.68	1024.9	1021.35	1017.13	1558	1580.7	1597.2	1608
m1 = 1.33	1032.73	1029.83	1026.17	1021.87	1574.8	1596.1	1611.3	1621
m1 = 1.552	1037.55	1034.52	1030.77	1026.4	1590.9	1610.8	1624.8	1633.5
m1 = 1.774	1042.19	1039.05	1035.2	1030.74	1606.6	1625.1	1637.8	1645.5
m1 = 1.998	1046.67	1043.4	1039.51	1034.95	1621.7	1638.9	1650.5	1657.1

CCCC(N)C(=O)O (stereo not drawn) [DL-2-aminopentanoic acid] + O
Settings	mass density, 288.15 K [kg/m3]	mass density, 298.15 K [kg/m3]	mass density, 308.15 K [kg/m3]	mass density, 318.15 K [kg/m3]	speed of sound, 288.15 K [m/s]	speed of sound, 298.15 K [m/s]	speed of sound, 308.15 K [m/s]	speed of sound, 318.15 K [m/s]
m1 = 0.04497	1000.31	998.222	995.183	991.346	1471.3	1501.2	1523.8	1540
m1 = 0.05999	1000.71	998.611	995.564	991.721	1473	1502.7	1525.1	1541.2
m1 = 0.07998	1001.24	999.126	996.069	992.218	1475.1	1504.6	1526.9	1542.8
m1 = 0.09499	1001.63	999.511	996.447	992.59	1476.7	1506.1	1528.2	1544
m1 = 0.11	1002.03	999.895	996.823	992.961	1478.3	1507.5	1529.6	1545.2
m1 = 0.125	1002.42	1000.28	997.197	993.329	1479.9	1509	1530.9	1546.4
m1 = 0.14	1002.81	1000.66	997.57	993.697	1481.5	1510.4	1532.2	1547.6
m1 = 0.155	1003.2	1001.04	997.943	994.064	1483.1	1511.9	1533.5	1548.8
m1 = 0.17	1003.59	1001.42	998.314	994.429	1484.6	1513.3	1534.8	1550
m1 = 0.185	1003.98	1001.79	998.684	994.793	1486.2	1514.7	1536.2	1551.2
m1 = 0.2	1004.36	1002.17	999.053	995.156	1487.8	1516.1	1537.5	1552.4

CC(N)C(=O)O (stereo not drawn) [DL-2-aminopropanoic acid] + O
Settings	mass density, 288.15 K [kg/m3]	mass density, 298.15 K [kg/m3]	mass density, 308.15 K [kg/m3]	mass density, 318.15 K [kg/m3]	speed of sound, 288.15 K [m/s]	speed of sound, 298.15 K [m/s]	speed of sound, 308.15 K [m/s]	speed of sound, 318.15 K [m/s]
m1 = 0.04994	1000.59	998.501	995.455	991.617	1469.9	1500	1522.8	1539.1
m1 = 0.1499	1003.53	1001.37	998.271	994.396	1476.9	1506.5	1528.8	1544.8
m1 = 0.2597	1006.7	1004.46	1001.3	997.395	1484.5	1513.5	1535.4	1551
m1 = 0.4797	1012.86	1010.48	1007.21	1003.23	1499.3	1527.4	1548.3	1563.2
m1 = 0.6994	1018.78	1016.26	1012.89	1008.84	1513.8	1540.8	1560.9	1575
m1 = 0.9199	1024.51	1021.85	1018.39	1014.26	1528	1553.9	1573.2	1586.5
m1 = 1.138	1029.97	1027.2	1023.64	1019.43	1541.7	1566.6	1585	1597.7
m1 = 1.36	1035.33	1032.43	1028.77	1024.51	1555.1	1579.1	1596.7	1608.7
m1 = 1.577	1040.37	1037.36	1033.63	1029.29	1568	1591	1607.8	1619.2
m1 = 1.799	1045.37	1042.26	1038.42	1034.03	1580.7	1602.7	1618.9	1629.5
